ChEMBL document CHEMBL2424643, “An efficient synthesis, characterization, and antimicrobial screening of tetrahydropyrimidine derivatives” (2013)
≈ marks a conversion by molar mass, not a printed value.

Columns and labels:
Assay type in all cases: functional
Staphylococcus aureus = assay: Antibacterial activity against Staphylococcus aureus MTCC 96 by two-fold serial dilution method
Aspergillus clavatus = assay: Antifungal activity against Aspergillus clavatus MTCC 1323 by two-fold serial dilution method
Streptococcus pyogenes = assay: Antibacterial activity against Streptococcus pyogenes MTCC 442 by two-fold serial dilution method
Candida albicans = assay: Antifungal activity against Candida albicans MTCC 227 by two-fold serial dilution method
Aspergillus niger = assay: Antifungal activity against Aspergillus niger MTCC 282 by two-fold serial dilution method
Escherichia coli = assay: Antibacterial activity against Escherichia coli MTCC 443 by two-fold serial dilution method
Pseudomonas aeruginosa = assay: Antibacterial activity against Pseudomonas aeruginosa MTCC 1688 by two-fold serial dilution method

| Compound | MIC (Staphylococcus aureus) [µM] | MIC (Aspergillus clavatus) [µM] | MIC (Streptococcus pyogenes) [µM] | MIC (Candida albicans) [µM] | MIC (Aspergillus niger) [µM] | MIC (Escherichia coli) [µM] | MIC (Pseudomonas aeruginosa) [µM] |
| --- | --- | --- | --- | --- | --- | --- | --- |
| CC1=C(C(=O)Nc2ccc(C)cc2C)C(c2cccc(O)c2)NC(=S)N1 (configuration not stated) | 649 (≈ 239 µg/mL) | 3250 (≈ 1190 µg/mL) | 203 (≈ 74.6 µg/mL) | 1620 (≈ 597 µg/mL) | 3250 (≈ 1190 µg/mL) | 812 (≈ 298 µg/mL) | 649 (≈ 239 µg/mL) |
| COc1ccc(C2NC(=S)NC(C)=C2C(=O)Nc2ccc(C)cc2C)cc1 (configuration not stated) | 203 (≈ 77.4 µg/mL) | 3250 (≈ 1240 µg/mL) | 406 (≈ 155 µg/mL) | 3250 (≈ 1240 µg/mL) | 3250 (≈ 1240 µg/mL) | 203 (≈ 77.4 µg/mL) | 325 (≈ 124 µg/mL) |
| CC1=C(C(=O)Nc2ccc(C)cc2C)C(c2ccccc2O)NC(=S)N1 (configuration not stated) | 812 (≈ 298 µg/mL) | 3250 (≈ 1190 µg/mL) | 325 (≈ 119 µg/mL) | 3250 (≈ 1190 µg/mL) | 3250 (≈ 1190 µg/mL) | 325 (≈ 119 µg/mL) | 406 (≈ 149 µg/mL) |
| CC1=C(C(=O)Nc2ccc(C)cc2C)C(c2ccc([N+](=O)[O-])cc2)NC(=S)N1 (configuration not stated) | 812 (≈ 322 µg/mL) | 3250 (≈ 1290 µg/mL) | 812 (≈ 322 µg/mL) | 1620 (≈ 644 µg/mL) | 3250 (≈ 1290 µg/mL) | 406 (≈ 161 µg/mL) | 812 (≈ 322 µg/mL) |
| CC1=C(C(=O)Nc2ccc(C)cc2C)C(c2ccccc2[N+](=O)[O-])NC(=S)N1 (configuration not stated) | 649 (≈ 257 µg/mL) | 3250 (≈ 1290 µg/mL) | 406 (≈ 161 µg/mL) | 3250 (≈ 1290 µg/mL) | 3250 (≈ 1290 µg/mL) | 649 (≈ 257 µg/mL) | 649 (≈ 257 µg/mL) |
| O=C(N[C@H](CO)[C@H](O)c1ccc([N+](=O)[O-])cc1)C(Cl)Cl [CHLORAMPHENICOL] | 50 (≈ 16.2 µg/mL) | – | 50 (≈ 16.2 µg/mL) | – | – | 50 (≈ 16.2 µg/mL) | 50 (≈ 16.2 µg/mL) |
| NYSTATIN | – | 100 | – | 100 | 100 | – | – |
| CC1=C(C(=O)Nc2ccc(C)cc2C)C(c2cccc([N+](=O)[O-])c2)NC(=S)N1 (configuration not stated) | 812 (≈ 322 µg/mL) | 3250 (≈ 1290 µg/mL) | 649 (≈ 257 µg/mL) | 1620 (≈ 644 µg/mL) | 3250 (≈ 1290 µg/mL) | 649 (≈ 257 µg/mL) | 812 (≈ 322 µg/mL) |
| CC1=C(C(=O)Nc2ccc(C)cc2C)C(c2ccc(Cl)cc2)NC(=S)N1 (configuration not stated) | 812 (≈ 313 µg/mL) | 3250 (≈ 1250 µg/mL) | 649 (≈ 251 µg/mL) | 3250 (≈ 1250 µg/mL) | 3250 (≈ 1250 µg/mL) | 812 (≈ 313 µg/mL) | 649 (≈ 251 µg/mL) |
| CC1(C)S[C@@H]2[C@H](NC(=O)[C@H](N)c3ccccc3)C(=O)N2[C@H]1C(=O)O [AMPICILLIN] | 250 (≈ 87.4 µg/mL) | – | 100 (≈ 34.9 µg/mL) | – | – | 100 (≈ 34.9 µg/mL) | 100 (≈ 34.9 µg/mL) |
| CC1=C(C(=O)Nc2ccc(C)cc2C)C(c2cccc(Cl)c2)NC(=S)N1 (configuration not stated) | 812 (≈ 313 µg/mL) | 3250 (≈ 1250 µg/mL) | 649 (≈ 251 µg/mL) | 1620 (≈ 627 µg/mL) | 3250 (≈ 1250 µg/mL) | 325 (≈ 125 µg/mL) | 649 (≈ 251 µg/mL) |
